Measured values as given in patent US12161612B2, “Methods and compositions for reducing symptoms of Parkinson's disease” (NeuroDerm, Ltd., priority 2023, dated 2024).

What was measured:
[1] = ND0612-001 dose proportionality, 24 hour continuous subcutaneous infusion; assay type: in vivo, human; details: healthy male subjects; LD (6% w/w)/CD (1.4% w/w) composition, 24 hour subcutaneous infusion at 80-240 μl/h
Protocol: Subjects were administered with a composition comprising LD (6% w/w)/CD (1.4% w/w) by way of a 24 hour continuous infusion at varying infusion rates: • Group 1:80 μl/h • Group 2:120 μl/h • Group 3:160 μl/h • Group 4:200 μl/h • Group 5:240 μl/h
Several PK parameters were derived for both LD and CD in the dose proportionality assessment, including AUC (hr*ng/ml), Cmax (ng/ml), C15 (ng/ml), and C24 (ng/mL).

[2] = ND0612-005a/ND0612-005b plasma carbidopa levels after subcutaneous carbidopa doses; assay type: in vivo, human; details: 60 mg/ml levodopa with 7.5, 6 or 4 mg/ml carbidopa over 24 hours, 17.9, 26.9, 33.6 mg/24 h carbidopa
Protocol: In a separate clinical trial (ND0612-005a and ND0612-005b, open label design studies), the plasma carbidopa levels were tested in view of the subcutaneous administration of several carbidopa doses. Three formulations, comprising 60 mg/ml levodopa and (a) 7.5 mg/ml; (b) 6 mg/ml; or 4 mg/ml of carbidopa, were administered to three groups of subjects over the course of 24 hours, providing a total of 17.9 mg/24 h carbidopa to each subject in the first group, 26.9 mg/24 h carbidopa to each subject in the second group and 33.6 mg/24 h carbidopa to each subject in the third group.

SMILES	dose proportionality of PK parameters (AUC, Cmax, C15, C24) [1]	carbidopa Cmax dose proportionality [2]
C[C@@](Cc1ccc(O)c(O)c1)(NN)C(=O)O [CD, carbidopa]	demonstrated dose proportionality	showed clear dose proportionality
N[C@@H](Cc1ccc(O)c(O)c1)C(=O)O [LD, L-3,4-dihydroxyphenylalanine]	demonstrated dose proportionality	–
